Reference: patent US5604245A, “Use of 4-amino-1-(2-pyridyl)piperidines for the preparation of a medicament for the treatment of conditions deriving from disorders of the serotoninergic systems mediated by 5-HT3 receptors” (priority 1991, dated 1997)
Read-outs that look alike come from different tables or passages of the source.

Tests used:
5-HT3 receptors [1] = target: T1, 5-HT3 receptors (Rattus norvegicus, UniProt P35563); assay: biochemical; assay type: binding; set-up: the cortical tissue from 4 animals was homogenized in 20 volumes of HEPES; from tissue; host or cells: cerebral cortical membranes of male rats (about 200 g)
T1 sequence (P35563 24-483): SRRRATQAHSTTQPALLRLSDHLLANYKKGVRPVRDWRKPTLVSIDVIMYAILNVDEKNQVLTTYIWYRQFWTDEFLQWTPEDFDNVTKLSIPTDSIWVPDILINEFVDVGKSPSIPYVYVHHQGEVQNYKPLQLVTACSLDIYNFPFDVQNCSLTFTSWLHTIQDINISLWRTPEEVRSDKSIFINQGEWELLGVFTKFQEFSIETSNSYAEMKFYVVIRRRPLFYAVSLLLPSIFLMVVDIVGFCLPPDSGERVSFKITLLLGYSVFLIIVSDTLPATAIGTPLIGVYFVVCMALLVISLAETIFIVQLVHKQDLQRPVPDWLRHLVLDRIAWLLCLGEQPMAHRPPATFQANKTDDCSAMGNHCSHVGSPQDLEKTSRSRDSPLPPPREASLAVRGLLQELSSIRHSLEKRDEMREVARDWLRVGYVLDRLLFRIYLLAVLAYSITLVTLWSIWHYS
Experimental: The potency of the compounds of formula (I') in displacing [^3 H]
For the preparation of cerebral membranes, male rats weighing about 200 g and sacrificed by decapitation were employed. […] In summary, the cortical tissue from 4 animals was homogenized in 20 volumes of HEPES and kept at 4° C. until used in the binding assays.

[2] = tested on: 5-HT3 receptors (mice striatum); assay: turning test in mice; assay type: in vivo; conditions: for turning behaviour after injection into the mice striatum: intrastriatal injection, inhibited by 5-HT3 receptor antagonists
Description: CM 57227 was also studied in the "turning" test carried out as described by P. Worms et al. in Life Sciences, 1986, 39, 2199-2208.

5-HT3 receptors [3] = target: T1, 5-HT3 receptors; assay: Bezold-Jarish test in the anaesthetised rat (reduction of heart rate); assay type: in vivo; set-up: evokes in the anaesthetised rat, a short-lived reduction of heart rate (Bezold-Jarish effect); from tissue; host or cells: whole animal: urethane-anaesthetised Sprague-Dawley rat; conditions: for ED50: rat, read-out: ID50 i.v. (dose which inhibits by 50% the heart rate); for inhibition of the Bezold-Jarish effect evoked by compounds of formula (I'): anaesthetised rat
Experimental: Selective 5-HT3 agonist activity of the compounds of formula (I') was confirmed in vivo in the Bezold-Jarish test. In this test, intravenous administration of the compounds of formula (I') evokes in the anaesthetised rat, a short-lived reduction of heart rate (Bezold-Jarish effect).
More particularly, the Bezold-Jarish effect evoked by the compounds of formula (I') was evaluated using Sprague-Dawley rats weighing from 200 to 300 g, anaesthetised with urethane 1.25 g/kg i.p. The blood pressure was recorded from the carotid artery and heart rate was evaluated, as pulse frequency, by means of a cardiotachometer. A catheter was inserted into the jugular vein for the administration of the substances.

serotonin uptake sites = serotonin uptake sites (Homo sapiens, UniProt P31645); assay: [3H] paroxetine displacement test; assay type: binding
Sequence of serotonin uptake sites (P31645 whole entry): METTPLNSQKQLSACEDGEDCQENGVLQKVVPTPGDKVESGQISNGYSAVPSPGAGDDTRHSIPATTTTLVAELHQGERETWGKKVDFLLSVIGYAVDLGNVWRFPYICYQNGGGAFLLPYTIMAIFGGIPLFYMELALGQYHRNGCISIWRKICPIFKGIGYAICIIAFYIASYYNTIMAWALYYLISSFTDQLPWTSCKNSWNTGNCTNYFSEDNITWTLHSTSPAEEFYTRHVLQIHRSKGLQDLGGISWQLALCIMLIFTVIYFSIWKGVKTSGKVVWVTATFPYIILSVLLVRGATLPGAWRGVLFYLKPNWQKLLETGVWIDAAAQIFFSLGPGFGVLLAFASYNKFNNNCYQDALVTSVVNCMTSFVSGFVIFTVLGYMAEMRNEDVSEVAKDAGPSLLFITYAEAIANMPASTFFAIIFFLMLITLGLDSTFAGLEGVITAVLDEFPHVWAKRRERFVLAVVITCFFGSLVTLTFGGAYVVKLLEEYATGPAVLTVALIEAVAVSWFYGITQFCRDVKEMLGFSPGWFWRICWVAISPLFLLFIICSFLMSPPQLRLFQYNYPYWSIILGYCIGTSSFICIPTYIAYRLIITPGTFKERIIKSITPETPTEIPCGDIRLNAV
Description: (§1) This affinity for 5-HT3 receptors is also selective.

5-HT1A receptors = target: T2, 5-HT1A receptors (Homo sapiens, UniProt P08908); assay: displacement of labelled specific ligand from 5-HT1A receptors; assay type: binding; conditions: no affinity
T2 sequence (P08908 1-422): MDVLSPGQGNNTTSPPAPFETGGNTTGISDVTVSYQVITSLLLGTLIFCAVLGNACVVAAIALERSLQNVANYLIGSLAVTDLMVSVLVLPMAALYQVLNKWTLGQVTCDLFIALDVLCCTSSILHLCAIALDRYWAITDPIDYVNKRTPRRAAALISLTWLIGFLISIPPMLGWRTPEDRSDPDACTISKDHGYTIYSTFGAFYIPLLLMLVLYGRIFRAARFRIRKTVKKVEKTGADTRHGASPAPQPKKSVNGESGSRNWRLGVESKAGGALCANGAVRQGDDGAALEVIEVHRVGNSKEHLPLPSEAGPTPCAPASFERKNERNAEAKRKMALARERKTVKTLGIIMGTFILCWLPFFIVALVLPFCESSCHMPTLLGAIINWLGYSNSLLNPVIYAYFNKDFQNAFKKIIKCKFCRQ
Description: as §1

dopaminergic sites D2 = dopaminergic sites D2 (Homo sapiens, UniProt P14416); assay: displacement of labelled specific ligand from dopaminergic sites D2; assay type: binding; conditions: no affinity
Sequence of dopaminergic sites D2 (P14416 whole entry): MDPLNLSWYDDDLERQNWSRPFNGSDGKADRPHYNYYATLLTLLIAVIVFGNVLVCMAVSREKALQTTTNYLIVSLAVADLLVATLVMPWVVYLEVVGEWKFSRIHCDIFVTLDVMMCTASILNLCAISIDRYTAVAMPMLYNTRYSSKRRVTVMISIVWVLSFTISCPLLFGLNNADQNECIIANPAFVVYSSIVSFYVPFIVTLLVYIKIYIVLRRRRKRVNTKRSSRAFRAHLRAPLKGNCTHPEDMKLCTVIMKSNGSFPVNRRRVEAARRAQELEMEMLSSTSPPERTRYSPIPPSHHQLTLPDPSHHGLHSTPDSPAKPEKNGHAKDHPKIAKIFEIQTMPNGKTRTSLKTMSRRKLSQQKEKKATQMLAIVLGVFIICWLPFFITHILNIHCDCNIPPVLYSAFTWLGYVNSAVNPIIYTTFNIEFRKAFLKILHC
Description: as §1

adrenergic sites α1 = assay: displacement of labelled specific ligand from adrenergic sites α1; assay type: binding; conditions: no affinity
Description: as §1

adrenergic sites β1 = adrenergic sites β1 (Homo sapiens, UniProt P08588); assay: displacement of labelled specific ligand from adrenergic sites β1; assay type: binding; conditions: no affinity
Sequence of adrenergic sites β1 (P08588 whole entry): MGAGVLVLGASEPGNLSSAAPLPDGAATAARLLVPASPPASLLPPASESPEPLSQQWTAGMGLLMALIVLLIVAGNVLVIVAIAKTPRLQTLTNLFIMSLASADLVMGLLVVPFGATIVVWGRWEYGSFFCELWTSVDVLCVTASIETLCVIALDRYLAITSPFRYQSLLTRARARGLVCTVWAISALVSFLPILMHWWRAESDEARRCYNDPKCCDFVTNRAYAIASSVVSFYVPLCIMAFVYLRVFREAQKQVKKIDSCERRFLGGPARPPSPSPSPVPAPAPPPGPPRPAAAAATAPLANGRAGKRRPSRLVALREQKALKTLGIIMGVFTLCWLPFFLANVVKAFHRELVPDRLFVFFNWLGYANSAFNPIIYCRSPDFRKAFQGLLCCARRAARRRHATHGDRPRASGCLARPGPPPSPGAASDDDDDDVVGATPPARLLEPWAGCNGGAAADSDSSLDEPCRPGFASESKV
Description: as §1

dopaminergic sites D1 = dopaminergic sites D1 (Homo sapiens, UniProt P21728); assay: displacement of labelled specific ligand from dopaminergic sites D1; assay type: binding; conditions: no affinity
Sequence of dopaminergic sites D1 (P21728 whole entry): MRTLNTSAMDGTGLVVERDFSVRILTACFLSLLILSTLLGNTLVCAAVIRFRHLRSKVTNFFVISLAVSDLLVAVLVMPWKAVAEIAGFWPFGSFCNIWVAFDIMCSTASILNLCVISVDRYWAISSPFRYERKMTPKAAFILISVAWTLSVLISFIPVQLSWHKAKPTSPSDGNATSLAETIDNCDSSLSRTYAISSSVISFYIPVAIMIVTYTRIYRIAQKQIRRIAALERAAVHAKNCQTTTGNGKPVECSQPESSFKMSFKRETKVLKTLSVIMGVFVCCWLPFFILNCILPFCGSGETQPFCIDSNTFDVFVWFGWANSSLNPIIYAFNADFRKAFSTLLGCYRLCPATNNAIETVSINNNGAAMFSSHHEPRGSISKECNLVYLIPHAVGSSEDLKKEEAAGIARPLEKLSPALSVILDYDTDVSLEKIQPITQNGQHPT
Description: as §1

5-HT3 receptors [4] = assay: fecal excretion in rats (intestinal prokinetic activity); assay type: in vivo
Experimental: Said activity was investigated by means of a test aimed at evaluating fecal excretion in rats. […] The compounds of formula (I') to be tested were administered subcutaneously. The treatment schedule provided for 8 animals in each group. At the time of drug treatment, the rectal lumen was manually emptied from any residual feces and the animals were then placed again into their cages. 90 Minutes after the treatment the fecal pellets were collected, their number was determined and their wet weight measured. They were then put in the oven and dried for 10 hours at 40° C. for the determination of the dry weight. The parameter used to evaluate the activity of the test compounds was the dry weight (in grams) of the feces excreted during the 90 minutes following the subcutaneous administration of the test compound.

central 5-HT3 receptors = target: T3, central 5-HT3 receptors (Mus musculus, UniProt P23979); assay: ex vivo inhibition of [3H] BRL 43694 specific binding to cortical cerebral membranes in mice
T3 construct: from tissue; host or cells: cortical cerebral membranes of mice dosed intraperitoneally
T3 sequence (P23979 24-489): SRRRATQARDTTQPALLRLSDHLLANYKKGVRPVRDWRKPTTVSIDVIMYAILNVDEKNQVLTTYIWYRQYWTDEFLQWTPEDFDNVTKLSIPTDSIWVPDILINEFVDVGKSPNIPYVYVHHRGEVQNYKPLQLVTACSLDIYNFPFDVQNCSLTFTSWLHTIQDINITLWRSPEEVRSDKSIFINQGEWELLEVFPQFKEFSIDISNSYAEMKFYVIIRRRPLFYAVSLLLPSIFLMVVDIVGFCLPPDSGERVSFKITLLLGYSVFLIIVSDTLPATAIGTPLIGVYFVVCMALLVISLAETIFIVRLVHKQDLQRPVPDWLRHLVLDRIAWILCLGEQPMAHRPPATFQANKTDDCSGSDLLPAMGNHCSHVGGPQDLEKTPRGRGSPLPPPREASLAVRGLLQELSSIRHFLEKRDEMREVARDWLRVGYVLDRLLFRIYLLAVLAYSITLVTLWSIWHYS

5-HT1B receptors = 5-HT1B receptors (Rattus norvegicus, UniProt P28564); assay: displacement of labelled specific ligand from 5-HT1B receptors; assay type: binding; conditions: no affinity
Sequence of 5-HT1B receptors (P28564 whole entry): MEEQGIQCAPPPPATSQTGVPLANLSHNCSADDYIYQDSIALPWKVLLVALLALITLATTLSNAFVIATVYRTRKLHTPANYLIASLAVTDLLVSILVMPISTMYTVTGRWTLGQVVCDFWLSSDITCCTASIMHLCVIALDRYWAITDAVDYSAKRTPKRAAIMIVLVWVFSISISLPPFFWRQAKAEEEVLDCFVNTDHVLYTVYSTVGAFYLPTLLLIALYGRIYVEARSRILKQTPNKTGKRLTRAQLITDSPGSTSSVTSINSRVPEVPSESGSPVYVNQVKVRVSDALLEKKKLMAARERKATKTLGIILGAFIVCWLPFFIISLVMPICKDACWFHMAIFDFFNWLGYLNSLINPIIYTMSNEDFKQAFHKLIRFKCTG
Description: as §1

adrenergic sites α2 = assay: displacement of labelled specific ligand from adrenergic sites α2; assay type: binding; conditions: no affinity
Description: as §1

Compound: Cc1[nH]c2ccc(O)cc2c1CCN [2-methylserotonin, reference compound]
- Ki (5-HT3 receptors [1]): 1.11 µM
- turning behaviour after injection into the mice striatum [2]: evokes a turning behaviour
- ED50 (5-HT3 receptors [3]; anaesthetised Sprague-Dawley rats, intravenous): 0.005 mg/kg

Compound: Cl.NC1CCN(c2cccc(Cl)n2)CC1 [CM 57227, 4-amino-1-(6-chloro-2-pyridyl)piperidine hydrochloride]
- Ki (serotonin uptake sites): > 10 µM
- Ki (5-HT1A receptors): > 10 µM
- Ki (dopaminergic sites D2): > 10 µM
- Ki (adrenergic sites α1): > 10 µM
- Ki (adrenergic sites β1): > 10 µM
- Ki (dopaminergic sites D1): > 10 µM
- Ki (5-HT3 receptors [1]; 0.5 nM [3H] BRL 43694, 30 minutes at 25° C., rat cortical membranes, read-out: Ki, displacement of [3H] BRL 43694): 0.193 µM
- dry weight of feces excreted during 90 minutes (5-HT3 receptors [4]; 2.5 mg/kg s.c.): about 1.3 g
- ID50 p.o., extrapolated to zero dilution (central 5-HT3 receptors; mice, oral administration, compared with ID50 i.p. of 1 mg/kg): of the same magnitude order
- ED50 (central 5-HT3 receptors; mouse, ip, 0.5 h, read-out: ID50 i.p., extrapolated to zero dilution (dose inhibiting by 50% [3H] BRL 43694 binding), mice, 30 minutes after i.p. administration): 1 mg/kg
- ID50 for [3H] BRL 43694 binding compared with ID50 for [3H] paroxetine (serotonin uptake sites) (central 5-HT3 receptors; same experimental conditions): markedly lower
- ED50 ([2]; Mus musculus, ip, mice, test compound i.p., ondansetron 1 mg/kg i.p., intrastriatal 2-methylserotonin, read-out: ED50, blockade of ondansetron antagonism of 2-methylserotonin-induced turning behaviour): 0.25 mg/kg
- turning behaviour after injection into the mice striatum [2]: evokes a turning behaviour
- Ki (5-HT1B receptors): > 10 µM
- Ki (adrenergic sites α2): > 10 µM
- ED50 (5-HT3 receptors [3]; iv): 0.00829 mg/kg

Compound: CN1C2CCC1CC(OC(=O)c1c[nH]c3ccccc13)C2 (stereo not shown) [ICS 205-930]
- antagonism of the fecal excretion stimulating activity of compounds of formula (I') (5-HT3 receptors [4]): antagonised
- inhibition of the Bezold-Jarish effect evoked by compounds of formula (I') (5-HT3 receptors [3]): inhibited

Compound: CC[C@@H](CO)NC(=O)[C@@H]1C=C2c3cccc4c3c(cn4C)C[C@H]2N(C)C1 [methysergide]
- inhibition of the Bezold-Jarish effect evoked by compounds of formula (I') (5-HT3 receptors [3]): not inhibited

Compound: NCCc1c[nH]c2ccc(O)cc12 [serotonin]
- ED50 (5-HT3 receptors [3]; iv): 0.0136 mg/kg

Compound: COc1cc(N)c(Cl)cc1C(=O)NC1CN2CCC1CC2 (stereo not shown) [zacopride]
- antagonism of the fecal excretion stimulating activity of compounds of formula (I') (5-HT3 receptors [4]): antagonised
- inhibition of the Bezold-Jarish effect evoked by compounds of formula (I') (5-HT3 receptors [3]): inhibited
